Consider one compound from patent EP4653450A1 (priority 2023, dated 2024).

By IC50 is commonly meant the concentration that gives 50% inhibition. A high value points to weaker potency. One may read the EC50 as the concentration giving half of the maximal effect.

Series [1] relates to SARS-CoV-2 Omicron strain (B.1.1.529). The series can be described thus: microbe, parasite or virus in culture. To be noted: Severe acute respiratory syndrome coronavirus 2, Vero C1008.
The subject of series [2] is SARS-CoV-2 Delta strain (B.1.617.2). Briefly: microbe, parasite or virus in culture. To be noted: Severe acute respiratory syndrome coronavirus 2, Vero C1008.
The next series relates to SARS-CoV-2 Delta strain. The conditions noted are these: mouse, in vivo.
In series [3] the test system is 47 safety-related targets.
Excerpt: For 78 tests related to 47 safe targets, the experimental methods used included: cAMP assay, calcium flux assay, hormone nuclear receptor assay, kinase binding assay, enzyme activity assay, neurotransmitter transporter assay, ion channel assay, and transporter assay.
For series [4] the following is noted: cynomolgus monkey, in vivo.

Values joined by “and” are separate entries in the source; they are usually repeats but may differ in a detail not shown here. Equal entries are not always repeated. Where only a bound is given, the exact number is not on record here.

Description for human plasma protein: Human plasma was purchased from BioIVT, anticoagulated with EDTA K2, and stored at -80 °C. The 96-well equilibrium dialysis plate was purchased from HTDialysis LLC. The equilibrium dialysis membrane was purchased from Gales Ferry.
The alkaline solution was titrated with the acidic solution until the pH value was 7.4, and the buffer could be stored at 4 °C for 7 days.
The dialysis membrane was soaked in ultrapure water for 60 min to separate the membrane into two pieces, then soaked with 20% ethanol for 20 min, and finally soaked with dialysis buffer for 20 min.
The frozen plasma was quickly thawed at room temperature.
The plasma was then centrifuged at 4 °C for 10 min at a centrifugal force of 3,220 g to remove clots, and the supernatant was collected into a new centrifuge tube. The pH of the plasma was measured and recorded.
A 10 mM DMSO stock solution of the test substance was prepared. 2 µL of the stock solution (10 mM) was diluted with 98 µL of DMSO to give a working solution (200 µM). […]
50 µL of blank plasma was added to the phosphate-buffered saline sample. […] The mixture was well mixed, and the sample was analyzed using liquid chromatography-mass spectrometry.
All calculations were performed by Microsoft Excel. The peak areas of the test substance on the buffer side and the plasma side were determined. […]

With `CC(C)(C)C(NC(=O)C(F)(F)F)C(=O)N1CC2(CC1C(=O)NC(C#N)CC1CCNC1=O)SCCS2` (stereo not shown) [Compound of formula (I)], the IC50 in series [1] turned out to be 120 nM. For the same compound, in the series with human plasma protein, the “Free rate (F%) Replicate 1” value was found to be 48.71% and the “Free rate (F%) Replicate 2” value amounted to 44.55%. For the same compound, half-maximal inhibition in series [2] (IC50) required 40 nM. Further, in the series on SARS-CoV-2 Delta strain, the “Brain tissue (log10 copies/mg) Day 2” value was 1.04±0.24 log10 copies/mg and 0.77±0.20 log10 copies/mg; the body weight entry is reported as “not significantly reduced”; the “effect on viral titer in the lungs” value is recorded as “sustained inhibitory effect”; the “histopathological analysis of the lungs” value is on record as “significantly ameliorated lung damage”. For the same compound, in the series on SARS-CoV-2 Delta strain, the “reduction of viral copy number in the lungs” value was 2.4 log10 copies/g, the “reduction of viral titer in the lungs (plaque assay)” value is reported as “more than 3 log10 PFU/g”, the “viral titer in the lungs (plaque assay)” value is “the titer was not detected” and the “virus titer in the brains” value is reported as “no virus titer was detected”. Besides, the EC50 in series [3] is > 100 µM. Besides, in series [4], the arrhythmia result is reported as “no test sample-related arrhythmia was observed”, the cardiovascular system changes entry is “no test sample-related cardiovascular system changes were observed” and the “changes in ECG parameters or blood pressure” value was “no test sample-related changes in ECG parameters or blood pressure were observed”.
